Assay results: patent US20120270237A9, “METHODS FOR THE IDENTIFICATION OF KINASE INTERACTING MOLECULES AND FOR THE PURIFICATION OF KINASE PROTEINS” (Cellzone AG, priority 2009, published 2012)

Columns and labels:
[1] = molecular target: T1, IRAK4 (Homo sapiens, UniProt Q9NWZ3); test: Competition binding assay in HL60 cell lysate, antibody detection; parameters: endogenous in cells; host or cells: HL60; conditions: dose response curve, anti-IRAK4 antibody
T1 sequence (Q9NWZ3 1-460): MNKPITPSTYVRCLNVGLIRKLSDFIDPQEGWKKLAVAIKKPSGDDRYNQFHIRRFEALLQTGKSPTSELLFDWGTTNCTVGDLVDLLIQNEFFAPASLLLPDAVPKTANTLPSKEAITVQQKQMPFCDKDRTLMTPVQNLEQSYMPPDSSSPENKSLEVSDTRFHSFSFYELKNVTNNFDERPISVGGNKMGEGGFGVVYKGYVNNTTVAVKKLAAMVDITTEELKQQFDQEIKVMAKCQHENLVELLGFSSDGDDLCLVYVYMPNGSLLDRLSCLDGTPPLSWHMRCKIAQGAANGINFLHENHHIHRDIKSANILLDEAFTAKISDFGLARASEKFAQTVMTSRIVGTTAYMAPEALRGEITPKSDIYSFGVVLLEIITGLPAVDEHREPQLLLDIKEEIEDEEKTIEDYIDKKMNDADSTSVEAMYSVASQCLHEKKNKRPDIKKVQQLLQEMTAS
Protocol: (§1) The experiment was performed as described in example 7. The test compound (or DMSO as solvent control) and diluted cell lysate were added to the affinity matrix and incubated for two hours at 4° C. After washing, captured proteins were eluted with SDS-containing sample buffer. After spotting of eluate samples onto Nitrocellulose membranes IRAK1 was detected with an anti-IRAK1 antibody and IRAK4 with anti-IRAK4 antibody followed by incubation with a secondary fluorescently labeled detection antibody.
(§2) Various concentrations of test compounds were added to HL60 lysate samples and allowed to bind to the proteins contained in the lysate sample. At the same time the affinity matrix with the immobilized compound (FIG. 3, CZC31326) was added as well in order to capture proteins not bound to the test compound. After the incubation time the beads with captured proteins were separated from the lysate. Bound proteins were then eluted and the presence of IRAK1 and IRAK4 was detected and quantitavely determined using specific antibodies and the Odyssey Infrared Detection system. […]
(§3) The kinases in the eluates were detected and quantified by spotting on Nitrocellulose membranes and using a first antibody directed against the kinase of interest and a fluorescently labeled secondary antibody (anti-mouse or anti-rabbit IRDye™ antibodies from Rockland). […]

[2] = molecular target: IRAK1 (Homo sapiens, UniProt P51617); test: as above; parameters: endogenous in cells; host or cells: HL60; conditions: dose response curve, anti-IRAK1 antibody
Protocol: as §1, §2, §3

IRAK1, sequence (P51617 whole entry): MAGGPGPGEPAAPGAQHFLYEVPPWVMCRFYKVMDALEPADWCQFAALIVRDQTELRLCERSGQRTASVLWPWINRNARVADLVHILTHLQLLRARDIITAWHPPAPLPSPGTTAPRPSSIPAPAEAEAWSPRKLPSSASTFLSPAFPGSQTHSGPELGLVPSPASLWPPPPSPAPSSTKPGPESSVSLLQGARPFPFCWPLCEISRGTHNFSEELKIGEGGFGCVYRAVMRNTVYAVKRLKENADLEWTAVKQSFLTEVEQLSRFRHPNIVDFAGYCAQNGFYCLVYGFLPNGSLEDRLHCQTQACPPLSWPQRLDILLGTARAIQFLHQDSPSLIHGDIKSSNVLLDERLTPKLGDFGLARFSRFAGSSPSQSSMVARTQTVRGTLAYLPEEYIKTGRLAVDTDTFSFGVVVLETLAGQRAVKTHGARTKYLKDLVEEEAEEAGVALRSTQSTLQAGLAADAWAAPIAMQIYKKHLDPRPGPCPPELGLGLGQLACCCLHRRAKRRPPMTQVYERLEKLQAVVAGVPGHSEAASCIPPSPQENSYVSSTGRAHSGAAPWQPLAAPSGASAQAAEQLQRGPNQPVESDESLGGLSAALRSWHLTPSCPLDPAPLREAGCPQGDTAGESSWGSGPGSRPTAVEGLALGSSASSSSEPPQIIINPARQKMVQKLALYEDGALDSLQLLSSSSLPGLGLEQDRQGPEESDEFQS

IC50 [1]: 0.04 µM
IC50 [2]: 0.15 µM
Compound: CS(=O)(=O)Nc1ccccc1Nc1nc(Nc2cccc(OCCN)c2)ncc1Cl [CZC31326, N-(2-(2-(3-(2-aminoethoxy)phenylamino)-5-chloropyrimidin-4-ylamino)phenyl)methanesulfonamide]
